Reference: patent publication US20210255193A1, “LYSINE REACTIVE PROBES AND USES THEREOF” (The Scripps Research Institute, priority 2017, published 2021)
Blank lines part the entries; values can stand above or below the compound they belong to.

Assays:
Assay in all cases: competitive isoTOP-ABPP
Format in all cases: binding
[1] = biological target: T1, SOD2 Superoxide dismutase (Homo sapiens, UniProt P04179); details: 50 uM, 231 sol, in vitro; for R value (DMSO/fragment) for probe 1 labeling: P04179_K68
T1 construct: isoTOP-ABPP experiments performed in cell lysates (in vitro); endogenous in cells; host or cells: MDA-MB-231 soluble lysate
T1 sequence (P04179 25-222): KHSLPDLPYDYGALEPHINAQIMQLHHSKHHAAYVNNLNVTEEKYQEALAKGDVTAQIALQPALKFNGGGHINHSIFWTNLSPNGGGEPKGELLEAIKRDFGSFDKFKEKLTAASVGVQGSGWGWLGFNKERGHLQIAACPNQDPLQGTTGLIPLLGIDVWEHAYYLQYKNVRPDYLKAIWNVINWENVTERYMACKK
Procedure, shortened: (§1)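 Cell lysate (0.5 ml) was pre-treated with fragment, 50 μM for activated esters or 100 μM for guanidinylating agents, versus DMSO, then labeled 1 h at ambient temperature with 0.1 mM STP-alkyne. Light/heavy TEV tags attached by CuAAC; R = DMSO/compound MS1 peak-area ratio, median per lysine.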

[2] = biological target: T2, SMPD1 Sphingomyelin phosphodiesterase (Homo sapiens, UniProt P17405); details: 50 uM, 231 sol, in vitro
T2 construct: isoTOP-ABPP experiments performed in cell lysates (in vitro); endogenous in cells; host or cells: soluble proteome of human cancer cell lines (MDA-MB-231; Ramos and Jurkat also prepared)
T2 sequence (P17405 47-631): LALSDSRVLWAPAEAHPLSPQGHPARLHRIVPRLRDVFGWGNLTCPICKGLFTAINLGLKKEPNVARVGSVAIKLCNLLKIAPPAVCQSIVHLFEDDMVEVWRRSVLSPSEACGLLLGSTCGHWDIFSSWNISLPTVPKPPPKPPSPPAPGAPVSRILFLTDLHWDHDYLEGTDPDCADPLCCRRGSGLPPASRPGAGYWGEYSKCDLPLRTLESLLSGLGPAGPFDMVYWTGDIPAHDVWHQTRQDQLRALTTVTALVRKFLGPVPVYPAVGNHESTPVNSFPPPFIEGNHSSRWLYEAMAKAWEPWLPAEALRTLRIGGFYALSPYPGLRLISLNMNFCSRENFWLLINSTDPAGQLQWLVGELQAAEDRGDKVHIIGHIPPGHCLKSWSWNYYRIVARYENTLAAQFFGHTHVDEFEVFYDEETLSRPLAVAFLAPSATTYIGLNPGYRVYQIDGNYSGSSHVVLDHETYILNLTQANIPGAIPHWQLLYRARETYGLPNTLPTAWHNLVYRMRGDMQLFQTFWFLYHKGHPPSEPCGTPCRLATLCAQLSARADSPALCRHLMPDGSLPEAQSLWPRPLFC
Procedure, shortened: as §1

[3] = biological target: T3, AKR1C3 Aldo-keto reductase family 1 member C3 (Homo sapiens, UniProt P42330); details: 50 uM, in vitro
T3 construct: isoTOP-ABPP experiments performed in cell lysates (in vitro); endogenous in cells; host or cells: soluble proteome of human cancer cell lines (MDA-MB-231; Ramos and Jurkat also prepared)
T3 sequence (P42330 1-323): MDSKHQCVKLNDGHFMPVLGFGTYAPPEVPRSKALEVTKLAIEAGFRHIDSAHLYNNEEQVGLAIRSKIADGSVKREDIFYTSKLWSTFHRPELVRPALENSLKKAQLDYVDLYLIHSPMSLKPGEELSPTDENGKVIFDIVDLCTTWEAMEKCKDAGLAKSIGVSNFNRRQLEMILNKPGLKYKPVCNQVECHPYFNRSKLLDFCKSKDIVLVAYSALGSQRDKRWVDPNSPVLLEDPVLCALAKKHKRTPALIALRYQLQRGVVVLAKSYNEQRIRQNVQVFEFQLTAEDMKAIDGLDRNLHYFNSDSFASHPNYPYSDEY
Procedure, shortened: as §1

[4] = biological target: T4, MRPL12 39S ribosomal protein L12, mitochondrial (Homo sapiens, UniProt P52815); details: 50 uM, 231 sol, in vitro; for R value (DMSO/fragment) for probe 1 labeling: P52815_K87
T4 construct: isoTOP-ABPP experiments performed in cell lysates (in vitro); endogenous in cells; host or cells: soluble proteome of human cancer cell lines (MDA-MB-231, Ramos, Jurkat)
Procedure, shortened: as §1

Structure (SMILES): O=C(Oc1c(F)c(F)c(F)c(F)c1F)C1CCN(C(=O)OCc2ccccc2)CC1 [fragment 24, 1-Benzyl 4-(pentafluorophenyl) piperidine-1,4-dicarboxylate]
isoTOP-ABPP reactivity ratio at lysine P42330_K270 ([3]; 231 sol): 4.2

Structure (SMILES): O=C(CCc1cn(-c2ccccc2)nc1-c1ccccc1)Oc1ccc([N+](=O)[O-])cc1[N+](=O)[O-] [fragment 29, 2,4-Dinitrophenyl 3-(1,3-diphenyl-1H-pyrazol-4-yl)propanoate]
isoTOP-ABPP reactivity ratio at lysine P17405_K118 [2]: 2.5 | isoTOP-ABPP reactivity ratio at lysine P42330_K270 ([3]; 231 sol): 2.1 | isoTOP-ABPP reactivity ratio at lysine P52815_K87 [4]: 1.1

Structure (SMILES): O=C(Oc1ccc([N+](=O)[O-])cc1[N+](=O)[O-])C(c1ccccc1)c1ccccc1 [fragment 30, 2,4-Dinitrophenyl 2,2-diphenylacetate]
isoTOP-ABPP reactivity ratio at lysine P04179_K68 [1]: 1.1

Structure (SMILES): O=C(Oc1ccc([N+](=O)[O-])cc1[N+](=O)[O-])c1cc(C(F)(F)F)cc(C(F)(F)F)c1 [fragment 31, 2,4-Dinitrophenyl 3,5-bis(trifluoromethyl)benzoate]
isoTOP-ABPP reactivity ratio at lysine P04179_K68 [1]: 1.5

Structure (SMILES): Cn1cc(CC(=O)Oc2ccc([N+](=O)[O-])cc2[N+](=O)[O-])c2ccccc21 [fragment 32, 2,4-Dinitrophenyl 2-(1-methyl-1H-indol-3-yl)acetate]
isoTOP-ABPP reactivity ratio at lysine P04179_K68 [1]: 1.1

Structure (SMILES): COc1cc(CCC(=O)Oc2ccc([N+](=O)[O-])cc2[N+](=O)[O-])cc(OC)c1OC [fragment 33, 2,4-Dinitrophenyl 3-(3,4,5-trimethoxyphenyl)propanoate]
isoTOP-ABPP reactivity ratio at lysine P42330_K270 ([3]; 231 sol): 1.0 | isoTOP-ABPP reactivity ratio at lysine P52815_K87 [4]: 2.1

Structure (SMILES): O=C(Oc1ccc([N+](=O)[O-])cc1[N+](=O)[O-])C1CCN(C(=O)OCc2ccccc2)CC1 [fragment 34, 1-Benzyl 4-(2,4-dinitrophenyl) piperidine-1,4-dicarboxylate]
isoTOP-ABPP ratio (R) at liganded lysine P42330_K270 ([3]; sol, 231): 1.1

The remaining lines, values ahead:

R value (DMSO/fragment) for probe 1 labeling [1]: 1.0 | R value (DMSO/fragment) for probe 1 labeling ([2]; P17405_K118): 1.4 | R value (DMSO/fragment) for probe 1 labeling ([3]; P42330_K270, 231 sol): 1.4 | R value (DMSO/fragment) for probe 1 labeling [4]: 0.9
Structure (SMILES): O=C(Oc1c(F)c(F)c(F)c(F)c1F)C(c1ccccc1)c1ccccc1 [fragment 20, Pentafluorophenyl 2,2-diphenylacetate]

R value (DMSO/fragment) for probe 1 labeling [1]: 1.2 | R value (DMSO/fragment) for probe 1 labeling [4]: 0.6
Structure (SMILES): O=C(Oc1c(F)c(F)c(F)c(F)c1F)c1cc(C(F)(F)F)cc(C(F)(F)F)c1 [fragment 21, Pentafluorophenyl 3,5-bis(trifluoromethyl)benzoate]

R value (DMSO/fragment) for probe 1 labeling [1]: 1.0 | R value (DMSO/fragment) for probe 1 labeling [4]: 1.4
Structure (SMILES): Cn1cc(CC(=O)Oc2c(F)c(F)c(F)c(F)c2F)c2ccccc21 [fragment 22, Pentafluorophenyl 2-(1-methyl-1H-indol-3-yl)acetate]

isoTOP-ABPP reactivity ratio at lysine P04179_K68 [1]: 1.2
Structure (SMILES): O=C(CCc1coc2cc(F)ccc2c1=O)Oc1c(F)c(F)c(F)c(F)c1F [fragment 26, Pentafluorophenyl 3-(7-fluoro-4-oxo-4H-chromen-3-yl)propanoate]

isoTOP-ABPP reactivity ratio at lysine P04179_K68 [1]: 0.9 | isoTOP-ABPP reactivity ratio at lysine P42330_K270 ([3]; 231 sol): 2.7
Structure (SMILES): O=C(CN1C(=O)c2ccccc2C1=O)Oc1c(F)c(F)c(F)c(F)c1F [fragment 27, Pentafluorophenyl 2-(1,3-dioxoisoindolin-2-yl)acetate]

isoTOP-ABPP reactivity ratio at lysine P04179_K68 [1]: 0.8 | isoTOP-ABPP reactivity ratio at lysine P42330_K270 ([3]; 231 sol): 1.8 | isoTOP-ABPP reactivity ratio at lysine P52815_K87 [4]: 0.8
Structure (SMILES): CCn1cc(C(=O)Oc2c(F)c(F)c(F)c(F)c2F)c(=O)c2ccc(C)nc21 [fragment 28, Pentafluorophenyl 1-ethyl-7-methyl-4-oxo-1,4-dihydro-1,8-naphthyridine-3-carboxylate]
